Laboratory results reported in US20220296627A1, “Cytidine Derivatives and Methods of Forming Cytidine Derivatives” (Aenorasis Commercial Company of Pharmaceutical and Medical …, priority 2019, published 2022).

Tests used:
Type in all cases: cell-based
[1] = system: A549/WT wild type human lung adenocarcinoma cell line; assay: Cell growth assay (SRB) in A549/WT; settings: for Ratio of IC50 in the presence of dipyridamole / IC50 in the absence of dipyridamole / Ratio of IC50 in the presence of, compared to in the absence of, dipyridamole: A549/WT; for Ratio of IC50 in the presence of dipyridamole / IC50 in the absence of dipyridamole: 4-N-acyl and 4-N-phosphoryl derivatives (Table 5); for IC50: Homo sapiens, A549, A549/WT; for Ratio of IC50 in the presence of, compared to in the absence of, dipyridamole: acetylated 4-N-acyl derivatives (Table 7)
Experimental: (§1) Biological activities of the Gemcitabine derivative (which may be referred to as analogues) described above were evaluated with two assays: • 1. Cell growth assay using the SRB assay in cell lines A549/WT, SW1573/WT, PANC-01 and BXPC-3. • 2. MTT assay in human bladder cancer cell line T-24
(§2) The following cell lines were tested: • A549/WT —wild type human lung adenocarcinoma cell line (1) • SW1573/WT —wild type non-small lung human cell line (2), • PANC-01—human pancreatic cancer cell line (3) • BXPC-3 -epithelial human pancreatic adenocarcinoma cells (4).
(§3) Dipyridamole inhibits adenosine uptake by erythrocytes platelets and endothelial cells in vitro and in vivo. Thus, the present inventors recruited dipyridamole as an inhibitor of the nucleoside transporters of the tumour cells to observe the behaviour of the presently described Gemcitabine derivatives.
(§4) From the IC50 of each compound in the presence of dipyridamole, by dividing it with the IC50 of each compound in the absence of dipyridamole, the present inventors calculated a ratio that compared the efficacy of the analogous presence of dipyridamole.
(§5) Ratio=IC50 in the presence of dipyridamole/IC50 in the absence of dipyridamole • FIG. 10. Ratio of IC50 of 4-N-acyl and 4-N-phosphoryl derivatives in the presence of, compared to in the absence of, dipyridamole, in four cell lines

[2] = system: SW1573/WT wild type non-small lung human cell line; assay: Cell growth assay (SRB) in SW1573/WT; settings: for IC50: Homo sapiens, SW1573, SW 1573/WT; for Ratio of IC50 in the presence of dipyridamole / IC50 in the absence of dipyridamole / Ratio of IC50 in the presence of, compared to in the absence of, dipyridamole: SW 1573/WT; for Ratio of IC50 in the presence of dipyridamole / IC50 in the absence of dipyridamole: 4-N-acyl and 4-N-phosphoryl derivatives (Table 5); for Ratio of IC50 in the presence of, compared to in the absence of, dipyridamole: acetylated 4-N-acyl derivatives (Table 7)
Experimental: as §1, §2, §3, §4, §5

[3] = system: PANC-01 human pancreatic cancer cell line; assay: Cell growth assay (SRB) in PANC-01; settings: for Ratio of IC50 in the presence of dipyridamole / IC50 in the absence of dipyridamole: 4-N-acyl and 4-N-phosphoryl derivatives (Table 5); for IC50: Homo sapiens, Pancreatic cancer cell; for Ratio of IC50 in the presence of, compared to in the absence of, dipyridamole: acetylated 4-N-acyl derivatives (Table 7)
Experimental: as §1, §2, §3, §4, §5

[4] = system: BXPC-3 epithelial human pancreatic adenocarcinoma cells; assay: Cell growth assay (SRB) in BXPC-3; settings: for Ratio of IC50 in the presence of dipyridamole / IC50 in the absence of dipyridamole / Ratio of IC50 in the presence of, compared to in the absence of, dipyridamole: BXPC-3; for Ratio of IC50 in the presence of dipyridamole / IC50 in the absence of dipyridamole: 4-N-acyl and 4-N-phosphoryl derivatives (Table 5); for IC50: Homo sapiens, BXPC-3, BXPC-3; for Ratio of IC50 in the presence of, compared to in the absence of, dipyridamole: acetylated 4-N-acyl derivatives (Table 7)
Experimental: as §1, §2, §3, §4, §5

[5] = system: human bladder cancer cell line T-24; assay: MTT assay, cell viability of T-24 cells; settings: 100 μM; for inhibition of cell growth (cell viability, MTT), order of potency: 5000 cells/well; for cell viability (MTT), most potent derivatives: 10000 cells/well
Experimental: as §1
The cell viability of T-24 bladder cancer cells upon treatment with the Gemcitabine derivatives was evaluated using the MTT assay. T24 cancer cells were cultured in DMEM (Gibco) high glucose supplemented with 10% FBS and 1% Penicillin/Streptomycin (100 U/mL Penicillin and 100 μg/mL Streptomycin), at 37 ° C. in humidified atmosphere of 5% CO2.
For the MTT assay 5000 or 10000 cells were seeded in triplicates in 96-well plates. Stock solutions of each derivative were prepared in DMSO/EtOH (1:1 v/v). Then, the cells were treated and incubated with 100 μM of each compound for 24 or 48 hours. After the completion of the incubation time, 10 μL of MTT solution (5 mg/ml in PBS buffer) were added in each well and incubated for 4 hrs. Finally, to stop the reaction, the supernatant from each well was removed and 100 μL of stop mix solution (20% SDS in 50% dimethyl formamide in water) were added. The plate remained in darkness for 2 h and the absorbance was measured at 540 nm via a microplate ELISA reader (Awareness Technology Inc.) with a reference at 630 nm. The % cell viability for each compound was calculated relatively to the absorbance of the untreated cells (control).
Two sets of experiments were performed at concentrations of 100 μM, and the absorption of formazan was measured after 24 and 48 hours.
Another experiment was conducted with the MTT assay where the compounds were incubated for 48 hours at […] derivative concentration where the number of cells seeded per well was 10000.

[6] = 4-N-acyl and 4-N-phosphoryl derivatives (Table 4)
[7] = acetylated 4-N-acyl derivatives (Table 6)

SMILES | Ratio of IC50 in the presence of dipyridamole / IC50 in the absence of dipyridamole [1] | IC50 [1, 6] [nM] | IC50 [2, 6] [nM] | Ratio of IC50 in the presence of dipyridamole / IC50 in the absence of dipyridamole [2] | Ratio of IC50 in the presence of dipyridamole / IC50 in the absence of dipyridamole [3] | IC50 [3, 6] [nM] | Ratio of IC50 in the presence of dipyridamole / IC50 in the absence of dipyridamole [4] | IC50 [4, 6] [nM] | inhibition of cell growth (cell viability, MTT), order of potency ([5]; 24 hours) | inhibition of cell growth (cell viability, MTT), order of potency ([5]; 48 hours) | cell viability (MTT), most potent derivatives ([5]; 48 hours) | Ratio of IC50 in the presence of, compared to in the absence of, dipyridamole [1] | IC50 [1, 7] [nM] | IC50 [2, 7] [nM] | Ratio of IC50 in the presence of, compared to in the absence of, dipyridamole [2] | IC50 [3, 7] [nM] | Ratio of IC50 in the presence of, compared to in the absence of, dipyridamole [3] | Ratio of IC50 in the presence of, compared to in the absence of, dipyridamole [4] | IC50 [4, 7] [nM]
O=C(Nc1ccn(C2OC(CO)C(O)C2(F)F)c(=O)n1)OCc1cn(C2=CC3C=CC(O)=CC3OC2=O)nn1 (stereo not shown) [Derivative 11, (1-(7-hydroxy-2-oxo-4a,8a-dihydro-2H-chromen-3-yl)-1H-1,2,3-triazol-4-yl) methyl-4-N-Gemcitabine carbamate] | 11 | 430 | 420 | 11.9 | 4.6 | 1600 | 25 | 200 | greater potency than the parent drug Gemcitabine | 17>4>11 and then Gemcitabine | most potent |  |  |  |  |  |  |  | 
CCCCOC(=O)Nc1ccn(C2OC(COC(C)=O)C(OC(C)=O)C2(F)F)c(=O)n1 (stereo not shown) [Derivative 14] |  |  |  |  |  |  |  |  |  |  | most potent | 0.83 | 3100 | 2800 | 1.4 | 6500 | 0.9 | 1.77 | 1350
CC(=O)OCC1OC(n2ccc(NC(=O)OCCl)nc2=O)C(F)(F)C1OC(C)=O (stereo not shown) [Derivative 17] |  |  |  |  |  |  |  |  | greater potency than the parent drug Gemcitabine | 17>4>11 and then Gemcitabine |  | 2.4 | 2000 | 140 |  | 700 | 1.8 | 3.5 | 95
Nc1ccn([C@@H]2O[C@H](CO)[C@@H](O)C2(F)F)c(=O)n1 [Gemcitabine, 2′,2′-difluoro-2′-deoxycytidine, reference compound] | 15 | 18 | 11 | 22.7 | 3.4 | 52 | 26.6 | 9 |  | 17>4>11 and then Gemcitabine |  | 18 | 15 | 9.6 | 1 | 31 | 7.4 | 24.3 | 13
